Source: patent US7795305B2, “CDDO-compounds and combination therapies thereof” (Board of Regents, The University of Texas System, priority 2000, dated 2010)
Read-outs that look alike come from different tables or passages of the source.

Experiments:
[1] = system: HL-60 cells; assay: Viable cell count of leukemic cells in suspension culture (Trypan blue); format: cell-based, human; conditions: for IC50: HL-60
Method: (§1) Suspension culture of leukemic cells. Leukemic cell lines were cultured at a density of 3.0×10^5 cells/mL, and AML mononuclear cells at 5×10^5 cells/mL in the presence or absence of indicated concentrations of CDDO-Me. Appropriate amounts of DMSO (final concentration<0.05%) was included as a control. For cytotoxicity studies, 1 μM ara-C was added to the cultures.
CDDO. […] The percentage of proliferating cells were analyzed by FCM.
CDDO-Me. […] Mechanism of growth inhibition was analyzed on cell cycle and apoptosis in HL-60 cells.

[2] = system: U937 cells; assay: cells; format: cell-based, human
Method: Suspension culture of leukemic cells.
CDDO. The effect of CDDO on the survival of HL-60 and U937 leukemia cell lines is depicted in FIG. 1. A time- and dose-dependent decrease of HL-60 cells: at 48 hours, 10^−8 M, at 72 and 96 hours, 10^−9 M of CDDO reduced cell numbers by 50%. Viability of U937 cells was inhibited at 107 to 1018 at 48 hours. DNA fragmentation was measured to confirm that the cell death induced by CDDO was due to apoptosis on a sub G1 cell population by DNA/RNA flow cytometry (FIG. 2). The percentage of proliferating cells were analyzed by FCM.

[3] = system: primary AML cells; assay: Apoptosis in primary AML samples, subG1 DNA flow cytometry; format: cell-based, human
Method: Subjects. Samples of bone marrow or peripheral blood were obtained for in vitro studies from patients with newly diagnosed or recurrent AML with high (>70%) blast count and from patients with myeloid transformation of chronic myeloid leukemia (CML). Informed consent was obtained following institutional guidelines. Mononuclear cells were separated by Ficoll-Hypaque (Sigma Chemical Co) density-gradient centrifugation.
as §1
Cell kinetic and DNA fragmentation studies. The cell cycle kinetics was determined by staining cells with acridine orange for cellular DNA and RNA content followed by flow cytometeric analysis as described. […] Ten thousand events were stored in list mode for analysis. The percentage of cells in the “sub G1 peak” defined the proportion of apoptotic cells in the tested populations. […] Cell-cycle kinetics was analyzed using ModFit software (Verity Software House, Inc., Topsham, Me.). […]

[4] = system: CML-BC sample; assay: Colony formation of CML-BC sample; format: cell-based, human; conditions: CDDO 0.5 μM, CDDO-Me 0.1 μM
[5] = biological target: T1, PPARγ LBD (Homo sapiens, UniProt P37231); assay: Scintillation proximity assay (SPA), competition binding; conditions: read-out: Ki, competition with [3H]-rosiglitazone for binding to PPARγ LBD
T1 construct: bacterially expressed PPARγ LBD; made in house
Source text: PPARγ, a member of a family of nuclear receptors, induces differentiation and growth arrest in preadipocyte cells and can mediate inflammatory processes.

[6] = system: GAL4-PPARγ; assay: Gal4-PPARγ chimeric protein luciferase transactivation; format: cell-based
Method: To determine if bound CDDO transactivates PPARγ, a Gal4-PPARγ chimeric protein was used to drive the expression of luciferase linked to the DNA binding sequence of GAL4 (FIG. 11B) (Wang et al., 2000). […] All known pharmacological PPARγ ligands had anti-proliferative and differentiating effects only when used at higher (3 or 5 μM)concentrations.

[7] = system: HL-60-Dox cells; assay: Killing of MDR-1 expressing cells; format: cell-based, human
[8] = system: U937 cells transduced with Bcl-2; assay: Cytotoxicity in Bcl-2 overexpressing cells; format: cell-based, human
Source text: The inventors also tested if overexpression of the anti-apoptotic protein Bcl-2 protected leukemic cells from CDDO-induced cytotoxicity. For these experiments U937 cells transduced with Bcl-2 were used with empty-vector containing counterparts as controls.
To study if the overexpression of Bcl-2 can protect leukemic cells from CDDO-Me-induced cytotoxicity the inventors used U937 cells transduced with Bcl-2 (Vrana et al., 1999) and their empty-vector containing counterparts. […] However, […] overexpressing Bcl-2 exerted almost complete protection from CDDO-Me killing as determined by annexin V-positivity, Phi-Phi-Lux and CMXRos staining. […] In contrast, in p53-negative HL-60 and HL-60-Dox cells Fas was only not induced but IETD-FMK could also not prevent CDDO-Me-induced cell death, indicating involvement of different mechanisms of apoptotic cell death in these cells (Owen-Schaub et al., 1994). […] Thus, induction of the FasL/Fas/caspase-8 pathway is not essential in the execution of CDDO-Me-induced cell death. Post-translational modifications of Bcl-2 are involved in the regulation of apoptosis by CDDO-Me. Thus, Bcl-2 phosphorylation is inhibited by CDDO-Me.

[9] = system: HL-60 cells; assay: Differentiation by CD11b/CD14 flow cytometry; format: cell-based, human; conditions: 7 days, 0.5 μM
[10] = system: U937 cells; assay: Active caspase detection with Phi-Phi-Lux; format: cell-based, human; conditions: 1 μM, 6 hours
Method: Detection of active caspases. The cell-permeable fluorogenic substrate Phi-Phi-Lux-G1D2 was administered to monitor caspase activity according to the manufacturer's recommendations (OncoImmunin, Inc, Kensington, Md.). Briefly, 10^6 cells were resuspended in 5 μL of substrate solution and incubated for 1 hour at 37° C. in the dark. After incubation, cells were washed, and the fluorescence emission was determined using the FL-1 channel of a Becton Dickinson FACScan flow cytometer.
CDDO-Me. […] Effects of CDDO-Me on the cleavage of caspase-3 were analyzed utilizing the fluorogenic substrate of caspase-3 Phi-Phi-Lux.

T1 sequence (P37231 238-503 limits assumed): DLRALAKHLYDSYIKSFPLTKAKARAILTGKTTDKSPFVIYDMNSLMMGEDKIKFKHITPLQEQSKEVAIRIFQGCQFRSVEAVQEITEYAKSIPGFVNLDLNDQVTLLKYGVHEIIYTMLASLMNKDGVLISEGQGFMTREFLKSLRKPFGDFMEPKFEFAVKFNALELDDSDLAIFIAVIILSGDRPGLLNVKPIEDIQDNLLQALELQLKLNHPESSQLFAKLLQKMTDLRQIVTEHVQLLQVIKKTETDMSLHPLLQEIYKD

Compound: CC1(C)CCC2(C(=O)O)CCC3(C)C(C(=O)C=C4C5(C)C=C(C#N)C(=O)C(C)(C)C5CCC43C)C2C1 (stereo not shown) [CDDO, 2-cyano-3,12-dioxoolen-1,9-dien-28-oic acid]
- IC50 ([1]; Homo sapiens, 72 and 96 hours, read-out: concentration of CDDO that reduced cell numbers by 50%): 0.001 µM
- IC50 ([1]; Homo sapiens, 48 hours, read-out: concentration of CDDO that reduced cell numbers by 50%): 0.01 µM
- concentration at which viability of U937 cells was inhibited ([2]; 48 hours): 107 to 1018
- viability at 1 µM ([2]; Homo sapiens, U-937, 48 h, read-out: cells remaining viable): 44.7%
- viability at 2 µM ([2]; Homo sapiens, U-937, read-out: viable cells): 30.2%
- AML samples in which apoptosis was induced ([3]; 1 μM): 3 of 6
- AML samples in which apoptosis was induced ([3]; 5 μM): 5 of 6
- apoptosis in AML samples ([3]; CDDO 1 μM, ara-C 1 μM, alone or combined, n=23 (DMSO control 27.7±3.7%)): 41.2±4.4%
- paired mean difference±SEM in apoptosis ([3]; CDDO vs DMSO): 13.5%±2.8
- inhibition at 0.5 µM ([4]; Homo sapiens, read-out: inhibition of colonies in one CML-BC sample): > 50%
- Ki [5]: 0.012 µM
- transactivation of GAL4-PPARγ [6]: transactivates GAL4-PPARγ in a dose-dependent manner
- sensitivity of HL-60-Dox cells with high expression of the MDR-1 gene [7]: sensitive to CDDO-induced killing
- protection by Bcl-2 overexpression (3-fold) [8]: did not protect cells from CDDO-killing
- CD11b % [9]: 83.1%

Compound: COC(=O)[C@]12CCC(C)(C)C[C@H]1[C@H]1C(=O)C=C3[C@@]4(C)C=C(C#N)C(=O)C(C)(C)[C@@H]4CC[C@@]3(C)[C@]1(C)CC2 [CDDO-Me]
- viable cells recovered ([1]; 0.5 μM, 48 hrs): essentially no viable cells
- IC50 ([1]; read-out: IC50): 0.4 µM
- paired mean difference to DMSO control (mean±SEM), apoptotic cells ([3]; 0.1 μM): 26.9%±10.8
- paired mean difference to DMSO control (mean±SEM), apoptotic cells ([3]; 0.5 μM): 43.2%±5.2
- AML samples in which apoptosis was induced ([3]; 1 μM): 5 of 6
- AML samples in which apoptosis was induced ([3]; 5 μM): 6 of 6
- samples with more than 90% apoptotic cells ([3]; 5 μM): 4/6
- cell killing in AML samples ([3]; CDDO-Me 1 μM, ara-C 1 μM, alone or combined, n=6 (DMSO control 24.9±7.4%)): 50.5±15%
- samples with dose-dependent increase in percentage of apoptotic cells ([3]; lower concentrations): 4/4
- inhibition of colonies in one CML-BC sample [4]: > 50%
- Phi-Phi-Lux positive/PI negative cells [10]: 67%
- sensitivity of HL-60-Dox cells with high expression of the MDR-1 gene [7]: sensitive to CDDO-Me-induced killing
- protection by Bcl-2 overexpression (3-fold) [8]: did not protect cells from CDDO-Me-killing
